We go through one molecule from patent US20130150335A1, “PACLITAXEL/STEROIDAL COMPLEX” (Institute of Mataria Medica, Chinese Academy of Medical …, priority 2009, published 2013).

Data set [1] can be described thus: Solubility of paclitaxel/lipid complex in oil (soybean oil, MCO, mixed oil). Format: physicochemical. The settings on record: for solubility at 1 h: saturated solution. The protocol: Take 4 g of paclitaxel, add cholesterol, 7-dehydrocholesterol and ergosterol respectively in accordance with the amount ratio as stated in Table 2 below, move to a rotary evaporator together, dissolve with 500 ml of acetone each, mix at 45° C. for 1 hour then remove the solvent by the rotary evaporation method, vacuum dry at 65° C. for 15 hours. Take a quantity of each complex formed, add 20 g of soybean oil for injection used, heat in water bath for 1 hour and shake, obtain saturated solutions.
Using acetone as the solvent, the molar ratio of paclitaxel to cholesterol being 1:1, the reaction temperature at 35° C., the reaction time being 0.5 h, the effect of the paclitaxel concentration (16.0, 8.0, 4.0, 2.0, 1.0 and 0.5 mg/ml) on the complex preparation was investigated.
Filter the solution, take a quantity of the successive filtrate, dilute with absolute ethanol, carry out an HPLC analysis, calculate the solubility of complex in oil; take a quantity of paclitaxel, repeat the procedure.

Data set [2] in a line: Solubility of paclitaxel cholesterol complex in n-octanol. In kind it is physicochemical. The settings on record: organic solvent or mixture, thermodynamic from solid, 25° C., saturated solution, read-out: drug solubility in n-octanol. The protocol: Take 5 ml of the solution, filter by 0.45 μm of membrane, take an amount of the successive filtrate, dilute with absolute ethanol, carry out the ultraviolet spectrophotometry method, calculate the apparent solubility of the physical mixture and cholesterol in n-octanol, compared the results with paclitaxel.

The structures appear in SMILES notation. In brackets after ≈: the same amount, converted by molar mass. Like-named read-outs stand apart in the source and are kept apart here.

Turning to `CC(=O)O[C@H]1C(=O)[C@@]2(C)[C@H]([C@H](OC(=O)c3ccccc3)[C@]3(O)C[C@H](OC(=O)[C@H](O)[C@@H](NC(=O)c4ccccc4)c4ccccc4)C(C)=C1C3(C)C)[C@]1(OC(C)=O)CO[C@@H]1C[C@@H]2O` [Paclitaxel], the “drug solubility in vegetable oil: Mixed oil” value in data set [1] (Table 4, soybean oil and MEDIUM CHAIN OIL (volume ratio of 1:1), 60° C.) was 1360 µg/mL. Besides, the solubility at 1 h in data set [1] (medium chain oil (MCO), oil or lipid, thermodynamic from solid, Table 4, MEDIUM CHAIN OIL, 60° C., read-out: drug solubility in vegetable oil: MCO) came out at 2370 µg/mL (≈ 2780 µM); in data set [1] (oil or lipid, thermodynamic from solid, Table 4, soybean oil for injection, 60° C., read-out: drug solubility in vegetable oil: Soybean oil), 270 µg/mL (≈ 316 µM); in data set [1] (soybean oil for injection, oil or lipid, thermodynamic from solid, Table 2, effect of paclitaxel/steroid amount ratio, HPLC, read-out: Solubility in soybean oil), 270 µg/mL. Moreover, the solubility in data set [1] (soybean oil, oil or lipid, thermodynamic from solid, Table 1, complexes per CN200810168213.X, calculated as paclitaxel) is 270 µg/mL (≈ 316 µM). The solubility at 24 h in data set [2] was found to be 8860 µg/mL (≈ 10400 µM).
